Experimental data from patent publication US12090146B2, “Substituted-pyridinyl compounds and uses thereof” (Bionomics Limited, priority 2018, dated 2024).

Target: T1, hKv3.1 (Homo sapiens, UniProt P48547)
T1 construct: expressed in transfected cells
T1 sequence (P48547 1-511): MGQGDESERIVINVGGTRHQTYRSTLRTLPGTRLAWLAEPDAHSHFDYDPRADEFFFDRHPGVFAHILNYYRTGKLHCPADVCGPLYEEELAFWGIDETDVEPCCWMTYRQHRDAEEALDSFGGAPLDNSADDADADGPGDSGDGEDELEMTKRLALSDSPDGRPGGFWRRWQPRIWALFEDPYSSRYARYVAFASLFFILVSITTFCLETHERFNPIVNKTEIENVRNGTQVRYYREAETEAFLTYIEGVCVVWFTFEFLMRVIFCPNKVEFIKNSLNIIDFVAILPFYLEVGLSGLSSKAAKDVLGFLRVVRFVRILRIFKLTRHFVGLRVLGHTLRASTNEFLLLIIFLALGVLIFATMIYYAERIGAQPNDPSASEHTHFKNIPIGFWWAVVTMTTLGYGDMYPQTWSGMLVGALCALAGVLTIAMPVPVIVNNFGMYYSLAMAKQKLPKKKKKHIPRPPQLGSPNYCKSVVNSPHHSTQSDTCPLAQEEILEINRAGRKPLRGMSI
Assay: Automated patch clamp (Patchliner) whole-cell electrophysiology, Kv3.1
Format: cell-based
Conditions: 10 μM compound, CHO-K1 cells stably expressing hKv3.1; for Kv3.1 Activity at 10 μM Potentiation (%): % potentiation of peak current at −10 mV voltage step vs vehicle; for Kv3.1 Activity at 10 μM Voltage Shift (mV): voltage shift of the IV curve at V1/2
Description: hKv3.1, hKv3.2, hKv3.3, and hKv3.4 were stably expressed in CHO-K1 (Chinese hamster ovary) cells and kept under constant antibiotic selection. For in vitro assays, cells were maintained in appropriate growth medium at 37° C. and 5% CO2 in a humidified incubator.
hKv3.X expressing cells were plated in T-25 flasks for 3-4 days at 37° C. (no selection antibiotic) prior to use and grown to 80% confluence. Cells were washed twice with PBS (calcium and magnesium free) and detached with a 5-minute treatment at 37° C. with 2-3 mls of Accutase®. Cells were collected, and flask was washed in CHO-SFM II media (Life Technologies Gibco), centrifuged for 2 minutes at ˜110×g and resuspended to obtain a single cell suspension of ˜2-3×10^6 cells/ml.
The intracellular solution contained the following (in mM): KCl 50, NaCl 10, KF 60, EGTA 20, HEPES 10, adjusted to pH 7.2 with KOH and an osmolarity of 285 mOsmol. Seal enhancer was purchased from Nanion (80 mM NaCl, 3 mM KCl, 10 mM MgCl2, 35 mM CaCl2), 10 mM HEPES, pH7.4, 298 mOsmol. The external solution contained (in mM): NaCl 140, KCl 4, CaCl2) 2, MgCl2 1, HEPES 10, Glucose 5, adjusted to pH7.4 and an osmolarity of 298 mOsmol.
All compounds were initially tested at 10 uM at a final DMSO concentration of 0.33%. Compounds were dissolved in dimethylsulfoxide (DMSO) at a stock concentration of 30 mM. The compound was further diluted 1:10 to give a stock concentration of 3 mM in DMSO. The final assay solution was diluted 1:300 in External solution to give a final concentration of 10 uM. For the DMSO Control Buffer 30 uL of DMSO was added to 10 mL buffer.
All electrophysiological recordings were performed at ambient temperature (21-23° C.) using automated patch clamp (Patchliner, Nanion Technologies GmbH) in the whole-cell configuration.
Cell membrane potentials were held at −80 mV, and currents were evoked by voltage steps (1000 ms duration) from −60 to +60 mV in 10 mV increments. This was performed first with vehicle (0.33% DMSO) and then with 10 uM compound, after a 3-minute incubation period. Data was taken from 4 cells per assay.
The recordings were analysed and selected using peak current amplitude (>100 pA at the −10 mV voltage step) in the absence of compound to eliminate unsuitable cells from analysis. Peak current amplitude was measured and recorded for each voltage step and data was normalised to the maximum current at +60 mV. The normalised Kv3.x currents following addition of the compound were then compared with the currents recorded prior to compound addition (vehicle control). Positive modulation was determined as % potentiation at the voltage step of −10 mV=[current (cmpd)/current (veh)]*100−100. % potentiation ≥50% was considered acceptable. In addition, voltage shift of the IV curve at V1/2 was measured. V1/2 of ≥−5 mV was also considered acceptable. IV curves were plotted in GraphPad Prism (software version 6.0) and fitted with a Boltzmann equation, where V1/2 is the voltage at half-maximal activation.

| Kv3.1 Activity at 10 μM Potentiation (%) | Kv3.1 Activity at 10 μM Voltage Shift (mV) | SMILES |
| --- | --- | --- |
| 25% | −3.07 mV | CC[C@H]1NC(=O)N(c2cc(Oc3ccc4ccccc4c3)ccn2)C1=O [Example 42, (5R)-5-ethyl-3-[4-(2-naphthyloxy)-2-pyridyl]imidazolidine-2,4-dione] |
| 7% | −1.99 mV | CC[C@H]1NC(=O)N(c2cccc(Oc3ccc(OC)c(C)c3)n2)C1=O [Example 51, (5R)-5-ethyl-3-[6-(4-methoxy-3-methyl-phenoxy)-2-pyridyl]imidazolidine-2,4-dione] |
| 28% | −3.12 mV | CC[C@@]1(C)NC(=O)N(c2ccnc(Oc3ccc(C)c(C)c3)c2)C1=O [Example 17, (5R)-3-[2-(3,4-dimethylphenoxy)-4-pyridyl]-5-ethyl-5-methyl-imidazolidine-2,4-dione] |
| 33% | −4.25 mV | CC[C@]1(C)NC(=O)N(c2cccc(Oc3ccc(C)c(OC)c3)n2)C1=O [Example 72, (5S)-5-ethyl-3-[6-(3-methoxy-4-methyl-phenoxy)-2-pyridyl]-5-methyl-imidazolidine-2,4-dione] |
| 46% | −3.55 mV | CC[C@@]1(C)NC(=O)N(c2cccc(Oc3ccc4c(c3)CCC4)n2)C1=O [Example 61, (5R)-5-ethyl-3-(6-indan-5-yloxy-2-pyridyl)-5-methyl-imidazolidine-2,4-dione] |
| 19% | −2.7 mV | CC[C@H]1NC(=O)N(c2cccc(Oc3cccc(C)c3OC)n2)C1=O [Example 56, (5R)-5-ethyl-3-[6-(2-methoxy-3-methyl-phenoxy)-2-pyridyl]imidazolidine-2,4-dione] |
| 15% | −2.57 mV | CC[C@@]1(C)NC(=O)N(c2cccc(Oc3ccc4c(c3)OCCC4)n2)C1=O [Example 64, (5R)-3-(6-chroman-7-yloxy-2-pyridyl)-5-ethyl-5-methyl-imidazolidine-2,4-dione] |
| 22% | −3.79 mV | CC[C@@]1(C)NC(=O)N(c2cccc(Oc3ccc(C)c(C)c3)n2)C1=O [Example 65, (5R)-3-[6-(3,4-dimethylphenoxy)-2-pyridyl]-5-ethyl-5-methyl-imidazolidine-2,4-dione] |
| 12% | −0.63 mV | Cc1ccc(Oc2cc(N3C(=O)NC4(CCCCC4)C3=O)ccn2)cc1OC(F)(F)F [Example 29, 3-[2-[4-methyl-3-(trifluoromethoxy)phenoxy]-4-pyridyl]-1,3-diazaspiro[4.5]decane-2,4-dione] |
| 57% | −4.05 mV | CC[C@@]1(C)NC(=O)N(c2cccc(Oc3ccc(Cl)c(OC)c3)n2)C1=O [Example 62, (5R)-3-[6-(4-chloro-3-methoxy-phenoxy)-2-pyridyl]-5-ethyl-5-methyl-imidazolidine-2,4-dione] |
| 3% | −0.9 mV | CC[C@@]1(C)NC(=O)N(c2ccnc(Oc3ccc(Cl)c(OC)c3)c2)C1=O [Example 15, (5R)-5-ethyl-3-[2-(3-methoxy-4-chloro-phenoxy)-4-pyridyl]-5-methyl-imidazolidine-2,4-dione] |
| 11% | −1.41 mV | CC[C@H]1NC(=O)N(c2cccc(Oc3cccc(OC)c3)n2)C1=O [Example 55, (5R)-5-ethyl-3-[6-(3-methoxy-phenoxy)-2-pyridyl]imidazolidine-2,4-dione] |
| 51% | −3.45 mV | CC[C@@]1(C)NC(=O)N(c2cccc(Oc3ccc(F)c(C)c3)n2)C1=O [Example 60, (5R)-5-ethyl-3-[6-(4-fluoro-3-methyl-phenoxy)-2-pyridyl]-5-methyl-imidazolidine-2,4-dione] |
| 48% | −2.8 mV | CC[C@H]1NC(=O)N(c2cncc(Oc3ccc(C)c(OC)c3)c2)C1=O [Example 38, (5R)-5-ethyl-3-[5-(3-methoxy-4-methyl-phenoxy)-3-pyridyl]imidazolidine-2,4-dione] |
| 73% | −3 mV | CC[C@@]1(C)NC(=O)N(c2cccc(Oc3cccc4c3CCC4)n2)C1=O [Example 69, (5R)-5-ethyl-3-(6-indan-4-yloxy-2-pyridyl)-5-methyl-imidazolidine-2,4-dione] |
| 35% | −0.4 mV | CC[C@@]1(C)NC(=O)N(c2ccnc(Oc3ccc4c(c3)OCCC4)c2)C1=O [Example 19, (5R)-3-(2-chroman-7-yloxy-4-pyridyl)-5-ethyl-5-methyl-imidazolidine-2,4-dione] |
| 11% | −1.69 mV | CC[C@H]1NC(=O)N(c2cccc(Oc3cc(C)cc(OC)c3)n2)C1=O [Example 54, (5R)-5-ethyl-3-[6-(5-methoxy-3-methyl-phenoxy)-2-pyridyl]imidazolidine-2,4-dione] |
| 14% | −3.5 mV | CC[C@H]1NC(=O)N(c2cccc(Oc3cc(OC)ccc3C)n2)C1=O [Example 52, (5R)-5-ethyl-3-[6-(5-methoxy-2-methyl-phenoxy)-2-pyridyl]imidazolidine-2,4-dione] |
| 78% | −4.77 mV | CC[C@@]1(C)NC(=O)N(c2cncc(Oc3ccc(C)c(OC)c3)c2)C1=O [Example 40, (5R)-5-ethyl-3-[5-(3-methoxy-4-methyl-phenoxy)-3-pyridyl]-5-methyl-imidazolidine-2,4-dione] |
| −23% | 2.18 mV | CC[C@H]1NC(=O)N(c2cccc(Oc3ccc(C#N)cc3C(C)(C)C)n2)C1=O [Example 57, 3-tert-butyl-4-[[6-[(4R)-4-ethyl-2,5-dioxo-imidazolidin-1-yl]-2-pyridyl]oxy]benzonitrile] |
| 6% | −3.31 mV | CC[C@@]1(C)NC(=O)N(c2ccnc(Oc3ccc(C)c(F)c3)c2)C1=O [Example 12, (5R)-5-ethyl-3-[2-(3-fluoro-4-methyl-phenoxy)-4-pyridyl]-5-methyl-imidazolidine-2,4-dione] |
| 30% | 0.77 mV | CC[C@H]1NC(=O)N(c2ccnc(Oc3ccc(C)c(OC)c3)c2)C1=O [Example 23, (5R)-5-ethyl-3-[2-(3-methoxy-4-methyl-phenoxy)-4-pyridyl]imidazolidine-2,4-dione] |
| 19% | −2.06 mV | COc1cc(Oc2cc(N3C(=O)NC4(CCOCC4)C3=O)ccn2)ccc1C [Example 32, 3-[2-(3-methoxy-4-methyl-phenoxy)-4-pyridyl]-8-oxa-1,3-diazaspiro[4.5]decane-2,4-dione] |
